Consider 3 molecules from patent publication US12275731B2, “Azaindole inhibitors of wild-type and mutant forms of LRRK2” (DANA-FARBER CANCER INSTITUTE, INC., priority 2018, dated 2025).

Holding throughout (assay): KinomeScan profiling
Common to all, as to format: binding

For one experiment, the target named is T1, PIP5K2B (Homo sapiens, UniProt P78356).
T1 construct: purchased KinomeScan® (panel service)
T1 sequence (P78356 1-416): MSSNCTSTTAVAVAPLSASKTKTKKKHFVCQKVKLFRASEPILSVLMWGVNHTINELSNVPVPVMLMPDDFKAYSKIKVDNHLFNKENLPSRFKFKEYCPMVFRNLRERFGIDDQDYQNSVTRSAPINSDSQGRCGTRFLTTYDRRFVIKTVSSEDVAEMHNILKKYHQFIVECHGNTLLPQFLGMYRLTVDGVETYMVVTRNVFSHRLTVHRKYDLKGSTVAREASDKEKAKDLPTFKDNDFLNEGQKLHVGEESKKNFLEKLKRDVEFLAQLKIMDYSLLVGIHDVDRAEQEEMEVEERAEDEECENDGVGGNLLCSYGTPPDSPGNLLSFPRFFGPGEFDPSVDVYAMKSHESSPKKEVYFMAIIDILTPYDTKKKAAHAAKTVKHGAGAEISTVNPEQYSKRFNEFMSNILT
Particulars: read-out: % control. Put shortly:
(§1)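 Compounds were screened at 1 μM in DMSO across a 468-kinase KinomeScan panel. Binding was expressed as % control, scaled between a positive control (0%) and DMSO (100%) using luminescence signal. A value under 35% counted as active.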

For a further experiment, the target named is T2, EPHA6 (Homo sapiens, UniProt Q9UF33).
T2 sequence (Q9UF33 23-1036): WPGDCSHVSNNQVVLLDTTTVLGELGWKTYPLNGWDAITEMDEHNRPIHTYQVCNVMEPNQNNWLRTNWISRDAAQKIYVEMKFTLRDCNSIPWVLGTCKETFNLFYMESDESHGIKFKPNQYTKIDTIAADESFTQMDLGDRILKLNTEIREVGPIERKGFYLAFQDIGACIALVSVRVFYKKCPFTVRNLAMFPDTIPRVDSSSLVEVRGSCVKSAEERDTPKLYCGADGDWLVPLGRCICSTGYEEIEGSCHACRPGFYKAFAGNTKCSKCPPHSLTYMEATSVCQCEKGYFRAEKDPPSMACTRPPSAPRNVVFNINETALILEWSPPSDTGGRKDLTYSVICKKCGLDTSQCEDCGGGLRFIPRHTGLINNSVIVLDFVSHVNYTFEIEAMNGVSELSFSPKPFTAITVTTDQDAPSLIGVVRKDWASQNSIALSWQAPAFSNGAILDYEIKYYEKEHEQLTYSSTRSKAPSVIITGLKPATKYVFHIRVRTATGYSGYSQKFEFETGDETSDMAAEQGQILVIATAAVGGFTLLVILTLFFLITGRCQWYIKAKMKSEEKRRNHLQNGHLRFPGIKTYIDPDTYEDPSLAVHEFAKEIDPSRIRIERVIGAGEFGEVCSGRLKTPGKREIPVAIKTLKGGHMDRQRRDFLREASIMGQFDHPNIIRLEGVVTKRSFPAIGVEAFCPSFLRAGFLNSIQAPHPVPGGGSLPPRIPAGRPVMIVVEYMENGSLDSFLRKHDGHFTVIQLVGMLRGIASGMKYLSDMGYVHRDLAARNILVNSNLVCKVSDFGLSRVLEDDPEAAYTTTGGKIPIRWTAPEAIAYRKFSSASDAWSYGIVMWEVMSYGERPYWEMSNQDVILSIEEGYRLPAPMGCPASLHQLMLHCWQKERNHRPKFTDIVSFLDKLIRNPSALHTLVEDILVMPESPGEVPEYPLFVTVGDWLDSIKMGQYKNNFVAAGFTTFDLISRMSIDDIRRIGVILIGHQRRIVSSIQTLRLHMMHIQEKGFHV
Particulars: EPHA6, 1 μM; read-out: % control. Put shortly:
as §1

The target in another experiment is MLK2 (Homo sapiens, UniProt Q02779). Particulars: MLK2, 1 μM; read-out: % control. Put shortly: as §1
Sequence of MLK2 (Q02779 whole entry): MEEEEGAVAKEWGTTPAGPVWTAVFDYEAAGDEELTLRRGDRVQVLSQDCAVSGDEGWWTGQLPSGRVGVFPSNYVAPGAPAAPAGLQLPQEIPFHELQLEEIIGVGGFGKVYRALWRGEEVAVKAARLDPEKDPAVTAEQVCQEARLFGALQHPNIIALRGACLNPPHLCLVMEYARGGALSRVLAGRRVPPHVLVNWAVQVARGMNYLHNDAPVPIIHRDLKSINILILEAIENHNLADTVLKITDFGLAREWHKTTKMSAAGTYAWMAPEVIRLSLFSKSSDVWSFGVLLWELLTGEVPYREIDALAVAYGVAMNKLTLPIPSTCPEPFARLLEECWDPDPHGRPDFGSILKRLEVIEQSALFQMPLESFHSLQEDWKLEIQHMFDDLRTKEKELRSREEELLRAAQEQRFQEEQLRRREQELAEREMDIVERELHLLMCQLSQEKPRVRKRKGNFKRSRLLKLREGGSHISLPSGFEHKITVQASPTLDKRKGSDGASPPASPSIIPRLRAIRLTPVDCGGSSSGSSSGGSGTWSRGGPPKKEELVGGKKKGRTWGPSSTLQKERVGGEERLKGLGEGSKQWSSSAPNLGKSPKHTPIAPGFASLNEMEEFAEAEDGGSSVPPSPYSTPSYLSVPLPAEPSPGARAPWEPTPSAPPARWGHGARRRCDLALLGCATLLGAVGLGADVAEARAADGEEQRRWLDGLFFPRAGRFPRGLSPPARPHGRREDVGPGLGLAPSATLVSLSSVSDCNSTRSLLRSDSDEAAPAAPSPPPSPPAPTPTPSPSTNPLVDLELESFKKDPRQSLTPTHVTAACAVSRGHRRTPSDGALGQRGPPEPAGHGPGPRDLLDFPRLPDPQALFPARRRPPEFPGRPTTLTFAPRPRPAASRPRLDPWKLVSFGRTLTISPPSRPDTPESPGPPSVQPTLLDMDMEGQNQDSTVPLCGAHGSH
The target in a further experiment is GRK4 (Homo sapiens, UniProt P32298). Particulars: GRK4, 1 μM; read-out: % control. Put shortly:
as §1

The target of the next experiment is ERBB2 (Homo sapiens, UniProt P04626). Particulars: ERBB2, 1 μM; read-out: % control. Put shortly: as §1
Sequence of ERBB2 (P04626 23-1255): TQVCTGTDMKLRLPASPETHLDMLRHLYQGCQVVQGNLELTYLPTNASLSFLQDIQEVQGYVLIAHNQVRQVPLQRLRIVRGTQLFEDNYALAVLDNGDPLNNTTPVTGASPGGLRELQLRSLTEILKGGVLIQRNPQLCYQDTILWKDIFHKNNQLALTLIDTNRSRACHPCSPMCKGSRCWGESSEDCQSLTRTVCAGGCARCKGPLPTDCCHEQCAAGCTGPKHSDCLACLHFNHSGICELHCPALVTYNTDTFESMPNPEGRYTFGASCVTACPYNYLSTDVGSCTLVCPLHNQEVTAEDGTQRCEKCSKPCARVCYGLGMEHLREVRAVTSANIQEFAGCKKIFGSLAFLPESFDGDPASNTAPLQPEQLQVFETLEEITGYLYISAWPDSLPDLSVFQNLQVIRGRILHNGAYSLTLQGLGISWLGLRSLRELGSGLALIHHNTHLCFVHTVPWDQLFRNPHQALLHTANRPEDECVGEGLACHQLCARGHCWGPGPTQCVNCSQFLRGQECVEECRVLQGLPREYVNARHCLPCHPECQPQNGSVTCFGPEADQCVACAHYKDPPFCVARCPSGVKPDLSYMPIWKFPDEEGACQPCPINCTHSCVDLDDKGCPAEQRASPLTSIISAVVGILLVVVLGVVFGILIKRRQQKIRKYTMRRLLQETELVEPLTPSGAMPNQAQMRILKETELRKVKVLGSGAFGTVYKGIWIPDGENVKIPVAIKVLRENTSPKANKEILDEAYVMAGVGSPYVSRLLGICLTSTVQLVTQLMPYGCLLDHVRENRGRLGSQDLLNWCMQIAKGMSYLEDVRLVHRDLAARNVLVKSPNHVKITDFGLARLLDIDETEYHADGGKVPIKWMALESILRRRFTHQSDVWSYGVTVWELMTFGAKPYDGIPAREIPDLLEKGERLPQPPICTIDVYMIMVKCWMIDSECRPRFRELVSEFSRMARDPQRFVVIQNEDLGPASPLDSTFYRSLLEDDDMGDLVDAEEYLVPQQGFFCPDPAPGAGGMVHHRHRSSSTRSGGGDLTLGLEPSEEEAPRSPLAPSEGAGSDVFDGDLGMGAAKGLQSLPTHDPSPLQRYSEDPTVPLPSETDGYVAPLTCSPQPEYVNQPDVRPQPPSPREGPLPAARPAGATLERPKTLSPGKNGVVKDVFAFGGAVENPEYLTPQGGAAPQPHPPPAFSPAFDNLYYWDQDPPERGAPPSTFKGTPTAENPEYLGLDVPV
In a further experiment the target is T3, CHEK1 (Homo sapiens, UniProt O14757).
T3 sequence (O14757 1-476): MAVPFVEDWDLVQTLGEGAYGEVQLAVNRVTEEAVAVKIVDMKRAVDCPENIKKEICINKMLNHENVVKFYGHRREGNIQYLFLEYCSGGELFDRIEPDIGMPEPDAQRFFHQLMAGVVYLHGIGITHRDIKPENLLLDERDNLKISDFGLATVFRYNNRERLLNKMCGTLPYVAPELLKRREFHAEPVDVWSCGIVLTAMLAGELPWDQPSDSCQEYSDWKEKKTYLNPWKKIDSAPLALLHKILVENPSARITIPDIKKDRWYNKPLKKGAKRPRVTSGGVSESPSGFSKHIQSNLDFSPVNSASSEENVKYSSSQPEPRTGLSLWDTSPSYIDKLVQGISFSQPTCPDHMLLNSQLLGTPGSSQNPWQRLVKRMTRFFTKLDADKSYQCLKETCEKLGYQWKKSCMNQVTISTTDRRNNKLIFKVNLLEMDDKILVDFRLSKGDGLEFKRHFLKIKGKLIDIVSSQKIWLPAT
The following applies: CHEK1, 1 μM; read-out: % control. Put shortly:
as §1

In experiment [1] the target is T4, RSK2(Kin.Dom.1-N-terminal) (Homo sapiens, UniProt P51812).
T4 construct: RSK2(Kin.Dom.1-N-terminal)
T4 sequence (P51812 68-327 limits assumed): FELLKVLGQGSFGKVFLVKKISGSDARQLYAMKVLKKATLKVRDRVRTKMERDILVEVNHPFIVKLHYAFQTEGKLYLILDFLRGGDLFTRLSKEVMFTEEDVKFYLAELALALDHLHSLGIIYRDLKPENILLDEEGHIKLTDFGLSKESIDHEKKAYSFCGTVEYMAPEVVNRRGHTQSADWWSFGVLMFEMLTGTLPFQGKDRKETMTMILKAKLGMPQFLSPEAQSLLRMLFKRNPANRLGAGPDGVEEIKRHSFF
Particulars: read-out: % control. Put shortly:
as §1

Sequence of GRK4 (P32298 whole entry): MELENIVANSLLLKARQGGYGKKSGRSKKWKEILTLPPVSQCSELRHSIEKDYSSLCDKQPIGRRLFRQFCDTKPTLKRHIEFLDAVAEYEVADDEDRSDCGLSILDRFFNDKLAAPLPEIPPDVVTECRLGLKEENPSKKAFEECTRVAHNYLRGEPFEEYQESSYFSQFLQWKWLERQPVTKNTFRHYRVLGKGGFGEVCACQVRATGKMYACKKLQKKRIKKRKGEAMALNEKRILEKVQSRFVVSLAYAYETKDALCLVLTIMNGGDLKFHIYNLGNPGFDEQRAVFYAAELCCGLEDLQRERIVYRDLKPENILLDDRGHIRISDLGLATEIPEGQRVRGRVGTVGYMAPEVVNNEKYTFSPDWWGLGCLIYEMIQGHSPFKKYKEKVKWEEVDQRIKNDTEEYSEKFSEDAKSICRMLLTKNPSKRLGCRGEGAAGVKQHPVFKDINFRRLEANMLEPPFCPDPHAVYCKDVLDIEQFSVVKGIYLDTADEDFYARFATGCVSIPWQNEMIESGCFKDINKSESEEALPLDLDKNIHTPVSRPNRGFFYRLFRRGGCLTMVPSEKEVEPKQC

Take `CNc1c(-c2cnn([C@H]3CCN(C(C)=O)C[C@@H]3F)c2)cnc2[nH]cc(Cl)c12` [Compound 77, 1-((3S,4S)-4-(4-(3-chloro-4-(methylamino)-1H-pyrrolo[2,3-b]pyridin-5-yl)-1H-pyrazol-1-yl)-3-fluoropiperidin-1-yl)ethan-1-one]: the remaining binding at 1 µM turned out to be 3.4% on PIP5K2B; 93% on EPHA6; 62% on MLK2; 21% at GRK4; 63% on ERBB2; 89% on CHEK1. For the same molecule, the remaining binding at 1 µM in experiment [1] is 54%.
For the molecule `CNc1c(-c2ccc(C(=O)N3CCC(N4CCOCC4)CC3)cc2)cnc2[nH]cc(Cl)c12` [Compound 96, (4-(3-chloro-4-(methylamino)-1H-pyrrolo[2,3-b]pyridin-5-yl)phenyl)(4-morpholinopiperidin-1-yl)methanone], the remaining binding at 1 µM at PIP5K2B was 4.9%; on EPHA6, 98%; at MLK2, 39%; at GRK4, 28%; at ERBB2, 80%; at CHEK1, 84%. Besides, the remaining binding at 1 µM in experiment [1] came to 54%.
Turning to `O=C(c1ccc(-c2cnc3[nH]cc(Cl)c3c2NC2CCCC2)cc1)N1CCC(N2CCOCC2)CC1` [Compound 101, (4-(3-chloro-4-(cyclopentylamino)-1H-pyrrolo[2,3-b]pyridin-5-yl)phenyl)(4-morpholinopiperidin-1-yl)methanone], the remaining binding at 1 µM is 12% on PIP5K2B; 43% on EPHA6; 69% on MLK2; 14% at GRK4; 92% at ERBB2; 83% on CHEK1. Moreover, in experiment [1], the remaining binding at 1 µM turned out to be 65%.
